# From PubChem BioAssay AID2060345 (Molecular Pharmacology Branch, DTP, NCI, 2025)
# Several values for one entry are separate records, joined by “and”; a condition that tells them apart may be missing. Equal entries are not always repeated.
# Test system: MALME-3M multicell spheroids, viability
# Assay: Anticancer human tumor MALME-3M cell line growth inhibition [TAK];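 note: spheroids exposed to drugs for seven days before readout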;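 for viability, T/C: 100% = DMSO vehicle control viability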
# Conditions: for viability, T/C: stronger effect = lower value
# Description: Combinatorial screen of targeted agents with TAK-243 and ipatasertib in multi-cell type tumor spheroids
# A high-throughput screen of multi-cell type tumor spheroids was designed to identify active combinations of targeted small molecules and TAK-243 or ipatasertib. Complex spheroids include a stromal component modeled by human endothelial cells (HUVEC) and fibroblasts modeled by human mesenchymal stem cells (MSCs). The concentration ranges selected for each drug and investigational agent were based upon clinically achievable concentrations if the clinical Cmax of the agent was known.
# Compounds. The drugs and investigational agents: TAK-243 (785004), ipatasertib (767898), everolimus (733504), selumetinib (741078), bortezomib (756655), trametinib (758246), ixazomib (758254), vemurafenib (761431), dabrafenib (764134), sapanisertib (764658), alpelisib (765974), and copanlisib (816437), were obtained from the National Cancer Institute (NCI) Developmental Therapeutics Program Chemical Repository. The FDA-approved anticancer drug set is available from the NCI Developmental Therapeutics Program. […] The stock solutions were prepared in dimethyl sulfoxide (DMSO, Sigma-Aldrich, St. Louis, MO, cat. D2650) at 800-fold the tested concentration and stored at -70 degrees C prior to their use. All drugs and investigational agents were tested over a range starting from a high concentration at or near the clinical Cmax and decreasing in half-log increments. If the clinical Cmax for an agent had not been determined, the highest concentration tested was 10 microM.
# NCI60 Cell Culture. NCI60 cell lines were obtained from the NCI Developmental Therapeutics Program Tumor Repository. For each lot of cells, the Repository performed Applied Biosystems AmpFLSTR Identifiler testing with PCR amplification to confirm consistency with the published Identifier STR profile for each cell line. Cells were kept in continuous culture for no more than 20 passages. The optimal seeding densities for each of the cell lines at each time point assessed were determined prior to performing the concentration response studies. Briefly, the NCI60 human tumor lines were grown as monolayers in RPMI 1640 medium supplemented with 10% FBS and 2 mmol/L L-glutamine.
# An additional 2 lines were from the NCI60 cell line panel including melanomas, MALME-3M and SK-MEL-2. Pooled donor human umbilical vein endothelial cells (HUVEC, Lonza, cat. CC-2519) and human mesenchymal stem cells (hMSC, Lonza, cat. PT-2501) were purchased from Lonza (Walkersville, MD).
# PDMR cell lines were grown in complete medium (DC medium): Dulbecco's modified Eagle's medium (DMEM)/F12 supplemented with 5% fetal bovine serum (FBS), 2 mM L-glutamine, 100 U/mL penicillin and 100 µg/ml streptomycin, 0.4 µg/ml hydrocortisone, 10 ng/ml epidermal growth factor (EGF) recombinant human protein, 24 µg/mL adenine, and 0.1 mg/mL primocin. During culture from frozen stock vials, PDMR cells were cultured in the same medium containing 10 µM Y-27632 (see Table 3). The PDCs were cultured in complete DMEM/F12 media without 10 microM Y-27632 dihydrochloride for at least two passages prior to the screen. The pooled donor HUVEC and hMSC were cultured in endothelial cell growth medium 2 (PromoCell, Heidelberg, Germany, cat. C-22011) and mesenchymal stem cell growth medium 2 (PromoCell, cat. C-28009), respectively. For all experiments, HUVEC and hMSC were used at passages </=5.
# For the pre-screen, cell seeding densities were determined from a titration spanning the range from 5,000 to 313 cells per well. The mct-spheroids including 60% malignant cells, 25% HUVEC and 15% MSC dispensed as a mixture into U-bottom Ultra-Low Attachment 384-well plates (Corning, NY)
# High-throughput Drug Combination Screening.
# Prior to their inoculation into 384-well plates, malignant cells, HUVEC, and hMSC were removed from T flasks using TrypLE express (Thermo Fisher Scientific, cat. 12605036) and harvested by centrifugation for 5 min at 233 x g. […]
# [1] = curve of first compound, second compound 0.3 µM
# [2] = curve of first compound, second compound 0.949 µM
# [3] = curve of first compound, second compound 3 µM
# [4] = curve of first compound, second compound 9.49 µM
# [5] = curve of first compound, second compound 30 µM
smiles,measurement,setting,value
Cc1nc(NC(=O)N2CCCC2C(N)=O)sc1-c1ccnc(C(C)(C)C(F)(F)F)c1 (stereo unspecified) + CC(C)NCC(C(=O)N1CCN(c2ncnc3c2C(C)CC3O)CC1)c1ccc(Cl)cc1,IC50,[1],> 10000 nM
same,IC50,[2],> 10000 nM
same,IC50,[3],> 10000 nM
same,IC50,[4],4310 nM
same,IC50,[5],355 nM
same,"viability, T/C","second compound 0.3 µM, first compound 0.0316 µM",110%
same,"viability, T/C","second compound 0.3 µM, first compound 0.1 µM",104%
same,"viability, T/C","second compound 0.3 µM, first compound 0.316 µM",97.7%
same,"viability, T/C","second compound 0.3 µM, first compound 1 µM",88.1%
same,"viability, T/C","second compound 0.3 µM, first compound 3.16 µM",72.5%
same,"viability, T/C","second compound 0.3 µM, first compound 10 µM",59.1%
same,"viability, T/C","second compound 0.949 µM, first compound 0.0316 µM",107%
same,"viability, T/C","second compound 0.949 µM, first compound 0.1 µM",103%
same,"viability, T/C","second compound 0.949 µM, first compound 0.316 µM",86.3%
same,"viability, T/C","second compound 0.949 µM, first compound 1 µM",90.7%
same,"viability, T/C","second compound 0.949 µM, first compound 3.16 µM",75.5%
same,"viability, T/C","second compound 0.949 µM, first compound 10 µM",55.4%
same,"viability, T/C","second compound 3 µM, first compound 0.0316 µM",94.3%
same,"viability, T/C","second compound 3 µM, first compound 0.1 µM",88.6%
same,"viability, T/C","second compound 3 µM, first compound 0.316 µM",79.3%
same,"viability, T/C","second compound 3 µM, first compound 1 µM",75.2%
same,"viability, T/C","second compound 3 µM, first compound 3.16 µM",73.8%
same,"viability, T/C","second compound 3 µM, first compound 10 µM",53%
same,"viability, T/C","second compound 9.49 µM, first compound 0.0316 µM",79.4%
same,"viability, T/C","second compound 9.49 µM, first compound 0.1 µM",73%
same,"viability, T/C","second compound 9.49 µM, first compound 0.316 µM",67.1%
same,"viability, T/C","second compound 9.49 µM, first compound 1 µM",67.5%
same,"viability, T/C","second compound 9.49 µM, first compound 3.16 µM",54.8%
same,"viability, T/C","second compound 9.49 µM, first compound 10 µM",37.4%
same,"viability, T/C","second compound 30 µM, first compound 0.0316 µM",56.3%
same,"viability, T/C","second compound 30 µM, first compound 0.1 µM",59.1%
same,"viability, T/C","second compound 30 µM, first compound 0.316 µM",47.1%
same,"viability, T/C","second compound 30 µM, first compound 1 µM",42%
same,"viability, T/C","second compound 30 µM, first compound 3.16 µM",40%
same,"viability, T/C","second compound 30 µM, first compound 10 µM",22%
Cn1cnc2c(F)c(Nc3ccc(Br)cc3Cl)c(C(=O)NOCCO)cc21,"viability, T/C",compound 0.00949 µM,82.6% and 84.7%
same,"viability, T/C",compound 0.03 µM,49% and 52.6%
same,"viability, T/C",compound 0.0949 µM,22% and 21.7%
same,"viability, T/C",compound 0.3 µM,15.4% and 16.9%
same,"viability, T/C",compound 0.949 µM,12%
same,"viability, T/C",compound 3 µM,5.64% and 5.37%
same,IC50,curve of compound,28.2 nM and 32 nM
CC(C)CC(NC(=O)C(Cc1ccccc1)NC(=O)c1cnccn1)B(O)O (stereo unspecified),"viability, T/C",compound 31.6 pM,105% and 95.5%
same,"viability, T/C",compound 0.0001 µM,97.5% and 87.7%
same,"viability, T/C",compound 0.000316 µM,98.5% and 86.3%
same,"viability, T/C",compound 0.001 µM,97.5% and 70.5%
same,"viability, T/C",compound 0.00316 µM,25.8% and 18.3%
same,"viability, T/C",compound 0.01 µM,0.68% and 0.19%
same,IC50,curve of compound,2.14 nM and 1.56 nM
COc1c(OCCCN2CCOCC2)ccc2c3n(c(=NC(=O)c4cnc(N)nc4)nc12)CCN3,"viability, T/C",compound 0.00316 µM,92.7% and 95.3%
same,"viability, T/C",compound 0.01 µM,71.3% and 85.2%
same,"viability, T/C",compound 0.0316 µM,70.3% and 76.1%
same,"viability, T/C",compound 0.1 µM,51.1% and 48.3%
same,"viability, T/C",compound 0.316 µM,19% and 21.5%
same,"viability, T/C",compound 1 µM,8.97% and 8.52%
same,IC50,curve of compound,84 nM and 92.9 nM
Cn1cnc2c(F)c(Nc3ccc(Br)cc3Cl)c(C(=O)NOCCO)cc21 + CC(C)NCC(C(=O)N1CCN(c2ncnc3c2C(C)CC3O)CC1)c1ccc(Cl)cc1,IC50,[1],41.1 nM
same,IC50,[2],36 nM
same,IC50,[3],36.5 nM
same,IC50,[4],17.2 nM
same,IC50,[5],< 9.49 nM
same,"viability, T/C","second compound 0.3 µM, first compound 0.00949 µM",92.5%
same,"viability, T/C","second compound 0.3 µM, first compound 0.03 µM",60.7%
same,"viability, T/C","second compound 0.3 µM, first compound 0.0949 µM",21%
same,"viability, T/C","second compound 0.3 µM, first compound 0.3 µM",19%
same,"viability, T/C","second compound 0.3 µM, first compound 0.949 µM",13.1%
same,"viability, T/C","second compound 0.3 µM, first compound 3 µM",5.91%
same,"viability, T/C","second compound 0.949 µM, first compound 0.00949 µM",86.2%
same,"viability, T/C","second compound 0.949 µM, first compound 0.03 µM",55.6%
same,"viability, T/C","second compound 0.949 µM, first compound 0.0949 µM",23.5%
same,"viability, T/C","second compound 0.949 µM, first compound 0.3 µM",16.7%
same,"viability, T/C","second compound 0.949 µM, first compound 0.949 µM",12%
same,"viability, T/C","second compound 0.949 µM, first compound 3 µM",4.79%
same,"viability, T/C","second compound 3 µM, first compound 0.00949 µM",78.3%
same,"viability, T/C","second compound 3 µM, first compound 0.03 µM",56.6%
same,"viability, T/C","second compound 3 µM, first compound 0.0949 µM",19.6%
same,"viability, T/C","second compound 3 µM, first compound 0.3 µM",16.3%
same,"viability, T/C","second compound 3 µM, first compound 0.949 µM",9.28%
same,"viability, T/C","second compound 3 µM, first compound 3 µM",3.64%
same,"viability, T/C","second compound 9.49 µM, first compound 0.00949 µM",66.8%
same,"viability, T/C","second compound 9.49 µM, first compound 0.03 µM",33.1%
same,"viability, T/C","second compound 9.49 µM, first compound 0.0949 µM",19.6%
same,"viability, T/C","second compound 9.49 µM, first compound 0.3 µM",12.1%
same,"viability, T/C","second compound 9.49 µM, first compound 0.949 µM",7.13%
same,"viability, T/C","second compound 9.49 µM, first compound 3 µM",2.1%
same,"viability, T/C","second compound 30 µM, first compound 0.00949 µM",47.3%
same,"viability, T/C","second compound 30 µM, first compound 0.03 µM",31.6%
same,"viability, T/C","second compound 30 µM, first compound 0.0949 µM",13.1%
same,"viability, T/C","second compound 30 µM, first compound 0.3 µM",7.49%
same,"viability, T/C","second compound 30 µM, first compound 0.949 µM",3.66%
same,"viability, T/C","second compound 30 µM, first compound 3 µM",0.52%
